According to DBAASP:
Converted amounts (≈) assume the structure as drawn. “And” between values parts separate entries of the source, which are not always exact repeats. Equal values may be shown once.

Assays:
Assay in all cases: ≥ marks a high value that may be exact or a test limit, other limits are often not marked, values filed in µg/mL are converted to µM
Escherichia coli = system: Escherichia coli
Bacillus cereus = system: Bacillus cereus
Pseudomonas aeruginosa = system: Pseudomonas aeruginosa
Staphylococcus aureus = system: Staphylococcus aureus
[1] = system: Escherichia coli ATCC 25922
[2] = system: Staphylococcus epidermidis ATCC 12228
[3] = system: Pseudomonas aeruginosa ATCC 27853
[4] = system: Staphylococcus aureus ATCC 25923

Structure (SMILES) | MIC (Escherichia coli) | MIC (Pseudomonas aeruginosa) | MIC (Staphylococcus aureus) | also measured
CC[C@H](C)[C@H](NC(=O)CNC(=O)[C@H](C)NC(=O)[C@H](Cc1ccc(O)cc1)NC(=O)[C@@H](NC(=O)[C@H](CC(C)C)NC(=O)[C@H](C)N)C(C)C)C(=O)N[C@@H](CCCCN)C(=O)N[C@@H](CCCCN)C(=O)N[C@H](C(=O)N[C@@H](C)C(=O)N[C@@H](Cc1ccccc1)C(=O)N[C@@H](CC(C)C)C(=O)N[C@@H](CCCCN)C(=O)N[C@H](C(=O)N[C@@H](CCC(N)=O)C(=O)N[C@@H](CCCCN)C(=O)N[C@@H](CS)C(=O)N[C@@H](CC(=O)O)C(=O)NCC(=O)O)C(C)C)[C@@H](C)O [ALVYAGIKKTAFLKVQKCDG] | > 119 µM | – | – | MIC (Bacillus cereus): ≥ 119 µM
CSCC[C@H](NC(=O)[C@@H](N)Cc1ccccc1)C(=O)N[C@@H](CCCCN)C(=O)N[C@H](C(=O)N[C@@H](CC(C)C)C(=O)N[C@@H](C)C(=O)N[C@H](C(=O)N[C@@H](Cc1ccccc1)C(=O)NCC(=O)N[C@@H](CO)C(=O)N[C@H](C(=O)N[C@H](C(=O)N[C@H](C(=O)N[C@@H](CO)C(=O)N[C@@H](C)C(=O)N1CCC[C@H]1C(=O)N[C@@H](CCCCN)C(=O)N[C@@H](C)C(=O)N[C@@H](CO)C(=O)N[C@@H](CCCCN)C(=O)O)[C@@H](C)O)C(C)C)C(C)C)C(C)C)C(C)C [FMKVLAVFGSVVTSAPKASK] | > 124 µM | – | – | MIC (Bacillus cereus): ≥ 124 µM
CSCC[C@H](NC(=O)[C@H](C)NC(=O)[C@H](CCC(=O)O)NC(=O)CNC(=O)[C@@H](NC(=O)[C@H](Cc1ccccc1)NC(=O)[C@H](C)NC(=O)[C@H](CCCCN)NC(=O)CNC(=O)[C@H](Cc1ccccc1)NC(=O)[C@H](CCCN=C(N)N)NC(=O)[C@H](CCCCN)NC(=O)[C@H](C)NC(=O)[C@H](CO)NC(=O)[C@H](Cc1cnc[nH]1)NC(=O)[C@H](CC(C)C)NC(=O)[C@H](Cc1ccccc1)NC(=O)[C@H](CCCCN)NC(=O)CNC(=O)[C@H](CC(C)C)NC(=O)CN)C(C)C)C(=O)N[C@@H](CC(N)=O)C(=O)N[C@@H](CO)C(N)=O [GLGKFLHSAKRFGKAFVGEAMNS] | 75 µM (≈ 184 µg/mL) | > 75 µM | > 75 µM | –
CC[C@H](C)[C@H](N)C(=O)N[C@@H](CC(N)=O)C(=O)N[C@@H](Cc1c[nH]c2ccccc12)C(=O)N[C@@H](CCCCN)C(=O)N[C@@H](CCCCN)C(=O)N[C@H](C(=O)N[C@@H](C)C(=O)N[C@@H](CO)C(=O)N[C@H](C(=O)NCC(=O)N[C@@H](CCCCN)C(=O)N[C@@H](CCC(=O)O)C(=O)N[C@H](C(=O)N[C@@H](CC(C)C)C(=O)N[C@@H](CCCCN)C(=O)N[C@@H](C)C(=O)N[C@@H](CC(C)C)C(N)=O)C(C)C)[C@@H](C)CC)[C@@H](C)CC [INWKKIASIGKEVLKAL] | 7.3 µM and 5 µM and 2.5 µM | 86.6 µM (≈ 165 µg/mL) | 25.8 µM (≈ 49.3 µg/mL) | –
CC[C@H](C)[C@H](NC(=O)[C@H](CCCCN)NC(=O)[C@H](C)NC(=O)CNC(=O)[C@@H](NC(=O)[C@H](CCCCN)NC(=O)[C@@H](NC(=O)[C@H](CCCCN)NC(=O)[C@H](C)NC(=O)CNC(=O)[C@H](Cc1c[nH]c2ccccc12)NC(=O)[C@H](CCCCN)NC(=O)[C@@H](NC(=O)[C@H](CCCCN)NC(=O)[C@H](C)NC(=O)CNC(=O)[C@@H](NC(=O)[C@@H](N)CCCCN)[C@@H](C)CC)[C@@H](C)CC)[C@@H](C)CC)[C@@H](C)CC)C(N)=O [KIGAKIKWGAKIKIGAKI] | 4.16 µM (≈ 8 µg/mL) | 4.16 µM (≈ 8 µg/mL) | 4.16 µM (≈ 8 µg/mL) | –
CC[C@H](C)[C@H](NC(=O)[C@H](C)NC(=O)CNC(=O)[C@H](CCCCN)NC(=O)[C@@H](NC(=O)[C@H](CCCCN)NC(=O)[C@@H](NC(=O)[C@H](C)NC(=O)CNC(=O)[C@H](CCCCN)NC(=O)[C@H](Cc1c[nH]c2ccccc12)NC(=O)[C@H](CCCCN)NC(=O)[C@@H](NC(=O)[C@H](C)NC(=O)CNC(=O)[C@H](CCCCN)NC(=O)[C@@H](NC(=O)[C@@H](N)CCCCN)[C@@H](C)CC)[C@@H](C)CC)[C@@H](C)CC)[C@@H](C)CC)C(N)=O [KIKGAIKWKGAIKIKGAI] | 4.16 µM (≈ 8 µg/mL) | 8.32 µM (≈ 16 µg/mL) | 8.32 µM (≈ 16 µg/mL) | –
CC[C@H](C)[C@H](NC(=O)[C@H](C)NC(=O)CNC(=O)[C@@H](NC(=O)[C@H](CCCCN)NC(=O)[C@H](CCCCN)NC(=O)[C@@H](NC(=O)[C@H](C)NC(=O)CNC(=O)[C@H](Cc1c[nH]c2ccccc12)NC(=O)[C@H](CCCCN)NC(=O)[C@H](CCCCN)NC(=O)[C@@H](NC(=O)[C@H](C)NC(=O)CNC(=O)[C@@H](NC(=O)[C@H](CCCCN)NC(=O)[C@@H](N)CCCCN)[C@@H](C)CC)[C@@H](C)CC)[C@@H](C)CC)[C@@H](C)CC)C(N)=O [KKIGAIKKWGAIKKIGAI] | 66.5 µM (≈ 128 µg/mL) | 66.5 µM (≈ 128 µg/mL) | > 133 µM | –
CC[C@H](C)[C@H](NC(=O)[C@H](CCCCN)NC(=O)[C@@H](NC(=O)[C@@H](NC(=O)[C@H](Cc1ccc(O)cc1)NC(=O)[C@@H](NC(=O)[C@@H](N)CCCCN)C(C)C)C(C)C)C(C)C)C(=O)N[C@@H](C)C(=O)N[C@H](C(=O)N1CCC[C@H]1C(=O)N[C@@H](CS)C(=O)N[C@@H](Cc1ccccc1)C(=O)N1CCC[C@H]1C(=O)N[C@@H](CCCCN)C(=O)N[C@@H](CO)C(=O)N[C@@H](C)C(=O)N[C@@H](CCCN=C(N)N)C(=O)N[C@@H](CO)C(=O)N[C@H](C(=O)N[C@@H](CO)C(=O)O)C(C)C)C(C)C [KVYVVKIAVPCFPKSARSVS] | > 118 µM | – | – | MIC (Bacillus cereus): ≥ 118 µM
CC[C@H](C)[C@H](NC(=O)[C@H](C)NC(=O)[C@H](CCCCN)NC(=O)[C@H](CC(C)C)NC(=O)[C@H](C)NC(=O)[C@@H](NC(=O)[C@H](Cc1cnc[nH]1)NC(=O)[C@H](C)NC(=O)[C@@H](NC(=O)[C@@H](NC(=O)[C@H](CCCCN)NC(=O)[C@H](CCCCN)NC(=O)[C@H](C)NC(=O)[C@H](CO)NC(=O)[C@H](CCCCN)NC(=O)[C@H](Cc1ccccc1)NC(=O)[C@@H](NC(=O)[C@H](CCCCN)NC(=O)[C@H](C)NC(=O)[C@H](Cc1ccccc1)NC(=O)[C@H](CO)NC(=O)[C@H](CCCCN)NC(=O)[C@H](Cc1c[nH]c2ccccc12)NC(=O)[C@H](CCCCN)NC(C)=O)[C@@H](C)O)[C@@H](C)O)C(C)C)[C@@H](C)O)C(=O)N[C@@H](CO)C(=O)N[C@@H](CO)C(N)=O [KWKSFAKTFKSAKKTVAHTALKAISS] | – | – | – | MIC [1]: 125 µM (≈ 363 µg/mL); MIC [2]: 125 µM (≈ 363 µg/mL); MIC [3]: 125 µM (≈ 363 µg/mL); MIC [4]: 125 µM (≈ 363 µg/mL)
CC[C@H](C)[C@H](NC(=O)[C@H](Cc1ccccc1)NC(=O)[C@H](CO)NC(=O)[C@H](CCCCN)NC(=O)[C@H](Cc1c[nH]c2ccccc12)NC(=O)[C@@H](N)CCCCN)C(=O)N[C@@H](CCCCN)C(=O)N[C@@H](CCCCN)C(=O)N[C@@H](CC(C)C)C(=O)N[C@H](C(=O)N[C@@H](CO)C(=O)N[C@@H](CCCCN)C(=O)N[C@@H](Cc1ccccc1)C(=O)N[C@@H](CC(C)C)C(=O)N[C@@H](Cc1cnc[nH]1)C(=O)N[C@@H](CO)C(=O)N[C@@H](C)C(=O)N[C@@H](CCCCN)C(=O)N[C@@H](CCCCN)C(=O)N[C@@H](CC(N)=O)C(N)=O)[C@@H](C)O [KWKSFIKKLTSKFLHSAKKN] | – | 2.58 µM (≈ 6.25 µg/mL) | – | –
CC(C)C[C@H](NC(=O)[C@H](CCCCN)NC(=O)[C@H](Cc1ccccc1)NC(=O)[C@@H](NC(=O)[C@H](C)NC(=O)[C@@H]1CCCN1C(=O)[C@@H](N)CC(C)C)C(C)C)C(=O)N[C@@H](C)C(=O)N[C@@H](CO)C(=O)N[C@@H](CCCCN)C(=O)N[C@H](C(=O)N[C@@H](Cc1ccccc1)C(=O)N1CCC[C@H]1C(=O)N[C@@H](C)C(=O)N[C@H](C(=O)N[C@@H](Cc1ccc(O)cc1)C(=O)N[C@@H](CS)C(=O)N[C@@H](CCCCN)C(=O)N[C@@H](C)C(=O)N[C@@H](CO)C(=O)O)C(C)C)C(C)C [LPAVFKLASKVFPAVYCKAS] | 59.8 µM (≈ 128 µg/mL) | – | – | MIC (Bacillus cereus): ≥ 120 µM
CC[C@H](C)[C@H](NC(=O)[C@H](Cc1c[nH]c2ccccc12)NC(=O)[C@H](CCCN=C(N)N)NC(=O)[C@H](CCC(N)=O)NC(=O)[C@@H](NC(=O)[C@H](Cc1c[nH]c2ccccc12)NC(=O)[C@H](CCCN=C(N)N)NC(=O)[C@@H](N)CCCN=C(N)N)C(C)C)C(=O)N[C@@H](CCCN=C(N)N)C(=O)N[C@@H](CCCN=C(N)N)C(=O)N[C@@H](Cc1c[nH]c2ccccc12)C(=O)N[C@@H](CCCN=C(N)N)C(=O)N[C@@H](CCCCN)C(=O)N[C@@H](Cc1c[nH]c2ccccc12)C(=O)N[C@H](C(=O)O)C(C)C [RRWVQRWIRRWRKWV] | – | 20 µM (≈ 45.4 µg/mL) | 20 µM (≈ 45.4 µg/mL) | –
CC[C@H](C)[C@H](NC(=O)CNC(=O)[C@H](CC(C)C)NC(=O)[C@@H](NC(=O)[C@H](Cc1ccc(O)cc1)NC(=O)[C@@H](NC(=O)[C@H](CO)NC(=O)[C@@H](NC(=O)[C@@H]1CCCN1C(=O)[C@@H](NC(=O)[C@@H](N)CO)C(C)C)[C@@H](C)O)C(C)C)[C@@H](C)O)C(=O)N[C@@H](CCCCN)C(=O)N[C@H](C(=O)N[C@@H](CC(C)C)C(=O)N[C@@H](Cc1c[nH]c2ccccc12)C(=O)N[C@@H](CO)C(=O)N[C@@H](C)C(=O)N[C@@H](Cc1ccc(O)cc1)C(=O)N[C@@H](CCCCN)C(=O)N[C@@H](Cc1cnc[nH]1)C(=O)O)[C@@H](C)CC [SVPTSVYTLGIKILWSAYKH] | – | – | – | MIC [2]: 50 µM (≈ 113 µg/mL)
CC(C)C[C@H](NC(=O)[C@H](Cc1ccc(O)cc1)NC(=O)[C@H](Cc1ccc(O)cc1)NC(=O)CNC(=O)[C@H](Cc1c[nH]c2ccccc12)NC(=O)[C@@H](N)CO)C(=O)NCC(=O)N[C@@H](CCCCN)C(=O)N[C@@H](CCCCN)C(=O)N[C@@H](C)C(=O)N[C@@H](CCCN=C(N)N)C(=O)N[C@@H](Cc1c[nH]c2ccccc12)C(=O)N[C@@H](CC(N)=O)C(=O)N[C@@H](CC(C)C)C(=O)N[C@@H](CCCCN)C(=O)N[C@@H](Cc1cnc[nH]1)C(=O)N1CCC[C@H]1C(=O)N[C@@H](Cc1ccc(O)cc1)C(=O)N[C@H](C(=O)N[C@@H](CCC(N)=O)C(=O)N[C@@H](Cc1ccccc1)C(=O)O)C(C)C [SWGYYLGKKARWNLKHPYVQF] | – | – | – | MIC [2]: > 50 µM
CC(C)C[C@H](NC(=O)[C@H](Cc1ccc(O)cc1)NC(=O)[C@H](Cc1ccc(O)cc1)NC(=O)CNC(=O)[C@H](Cc1c[nH]c2ccccc12)NC(=O)[C@@H](N)CO)C(=O)NCC(=O)O [SWGYYLG] | – | – | – | MIC [2]: > 50 µM
